Measurements published in patent publication US5416073A, “Growth hormone-releasing peptides and method of treating animals, therewith” (The Adminstrators of the Tulane Educational Fund, priority 1985, dated 1995).
Square brackets hold non-standard residues; d marks the D form. Peptide text beside a SMILES is read from it.

Test system: Growth Hormone Release
Test: Peptide effects on growth hormone release, plasma GH by RIA in anesthetized male rats
Format: in vivo, rat
Settings: for % Potency: by comparison to pooled standards GRF(1-29)-NH2, limits in parenthesis
Protocol: In this evaluation, the procedures described by W. A. Murphy et al., Endocrinology 109:491-495 (1980), were employed.
In growth hormone (GH) experiments, male rats (Charles Rivers) were anesthetized with NEMBUTAL® (6 mg per 100 g body weight) which also served to maintain stimulated plasma GH levels. Exactly 30 minutes after the rats were anesthetized, 0.5 mL of saline or the test peptide in saline was administered as a SC bolus. A 1 mL blood sample was drawn from the jugular vein 15 minutes after the injection of the peptide in saline. GH levels were determined using NIADDKD rat GH RIA components.

[1] = dose 1.0 μg/100 g BW SC, 15 min, saline 541 ± 78
[2] = dose 5.0 μg/100 g BW SC, 15 min, saline 541 ± 78

## N-acetyl-L-histidine-1,D-alamine-2,L-norleucine-27-human Pancreatic Growth Hormone-Releasing (1-29)-amine [N-AcHis^1, D-Ala^2, Nle^27]
  % Potency: 1574 (1112-2226) %
Dose 0.5 (unit not given), SC, 15 min
  Plasma GH: 1146 ± 143
Dose 1.25 (unit not given), SC, 15 min
  Plasma GH: 1907 ± 603

## CCCC[C@H](NC(=O)[C@@H](NC(=O)[C@H](CC(=O)O)NC(=O)[C@H](CCC(N)=O)NC(=O)[C@H](CC(C)C)NC(=O)[C@H](CC(C)C)NC(=O)[C@H](CCCCN)NC(=O)[C@H](CCCNC(=N)N)NC(=O)[C@H](C)NC(=O)[C@H](CO)NC(=O)[C@H](CC(C)C)NC(=O)[C@H](CCC(N)=O)NC(=O)CNC(=O)[C@H](CC(C)C)NC(=O)[C@@H](NC(=O)[C@H](CCCCN)NC(=O)[C@H](CCCNC(=N)N)NC(=O)[C@H](Cc1ccc(O)cc1)NC(=O)[C@H](CO)NC(=O)[C@H](CC(N)=O)NC(=O)[C@@H](NC(=O)[C@H](Cc1ccccc1)NC(=O)[C@@H](NC(=O)[C@H](C)NC(=O)[C@H](CC(=O)O)NC(=O)[C@@H](C)NC(=O)[C@@H](N)Cc1ccc(O)cc1)[C@@H](C)CC)[C@@H](C)O)C(C)C)[C@@H](C)CC)C(=O)N[C@@H](CO)C(=O)N[C@@H](CCCNC(=N)N)C(N)=O [D-Ala^2 -Nle^27, D-alanine^2, Norleucine^27-human Pancreatic Growth Hormone-Releasing(1-29)-amide]
Dose 0.1 ug/100 g BW SC, 15 min, saline 278 ± 37
  Plasma GH: 465 ± 75 ng/mL
Dose 1.0 ug/100 g BW SC, 15 min, saline 278 ± 37
  Plasma GH: 2287 ± 265 ng/mL

## CC[C@H](C)[C@H](NC(=O)[C@H](C)NC(=O)[C@H](CC(=O)O)NC(=O)[C@H](C)NC(=O)[C@H](Cc1ccc(O)cc1)NC(C)=O)C(=O)N[C@@H](Cc1ccccc1)C(=O)N[C@H](C(=O)N[C@@H](CC(N)=O)C(=O)N[C@@H](CO)C(=O)N[C@@H](Cc1ccc(O)cc1)C(=O)N[C@@H](CCCNC(=N)N)C(=O)N[C@@H](CCCCN)C(=O)N[C@H](C(=O)N[C@@H](CC(C)C)C(=O)NCC(=O)N[C@@H](CCC(N)=O)C(=O)N[C@@H](CC(C)C)C(=O)N[C@@H](CO)C(=O)N[C@@H](C)C(=O)N[C@@H](CCCNC(=N)N)C(=O)N[C@@H](CCCCN)C(=O)N[C@@H](CC(C)C)C(=O)N[C@@H](CC(C)C)C(=O)N[C@@H](CCC(N)=O)C(=O)N[C@@H](CC(=O)O)C(=O)N[C@H](C(=O)N[C@@H](CCSC)C(=O)N[C@@H](CO)C(=O)N[C@@H](CCCNC(=N)N)C(N)=O)[C@@H](C)CC)C(C)C)[C@@H](C)O [N-Ac-hpGRF(1-29)-NH2, N-acetyl Human Pancreatic Growth Hormone-Releasing Factor(1-29)-Amide]
Dose 1.20 μg/100 g BW SC, 15 min, saline 342 ± 53
  Plasma GH: 2518 ± 598 ng/mL
Dose 3.0 μg/100 g BW SC, 15 min, saline 342 ± 53
  Plasma GH: 4899 ± 557 ng/mL

## D-serine-9-human Pancreatic Growth Hormone-Releasing(1-29)-amine [D-Ser^9]
  % Potency: 108 (77-151) %
Dose 16 (unit not given), SC, 15 min
  Plasma GH: 1804 ± 312
Dose 40 (unit not given), SC, 15 min
  Plasma GH: 3652 ± 370

## N-acetyl-L-histidine-1,D-alanine^2 -human Pancreatic Growth Hormone-Releasing(1-29)-amine [[N-Ac-His^1, D-Ala^2]-hpGRF(1-29)-NH2]
[1]
  Plasma GH: 1974 ± 274 ng/mL
[2]
  Plasma GH: 4989 ± 638 ng/mL

## CCCC[C@H](NC(=O)[C@@H](NC(=O)[C@H](CC(=O)O)NC(=O)[C@H](CCC(N)=O)NC(=O)[C@H](CC(C)C)NC(=O)[C@H](CC(C)C)NC(=O)[C@H](CCCCN)NC(=O)[C@H](CCCNC(=N)N)NC(=O)[C@H](C)NC(=O)[C@H](CO)NC(=O)[C@H](CC(C)C)NC(=O)[C@H](CCC(N)=O)NC(=O)CNC(=O)[C@H](CC(C)C)NC(=O)[C@@H](NC(=O)[C@H](CCCCN)NC(=O)[C@H](CCCNC(=N)N)NC(=O)[C@H](Cc1ccc(O)cc1)NC(=O)[C@H](CO)NC(=O)[C@@H](CC(N)=O)NC(=O)[C@@H](NC(=O)[C@H](Cc1ccccc1)NC(=O)[C@@H](NC(=O)[C@H](C)NC(=O)[C@@H](CC(=O)O)NC(=O)[C@@H](C)NC(=O)[C@@H](N)Cc1ccc(O)cc1)[C@@H](C)CC)[C@@H](C)O)C(C)C)[C@@H](C)CC)C(=O)N[C@@H](CO)C(=O)N[C@@H](CCCNC(=N)N)C(N)=O [D-Ala^2 -D-Asp^3 -D-Asn^8 -Nle^27, D-alanine^2, D-aspartic acid^3, D-asparagine^8, Norleucine27-human Pancreatic Growth Hormone-Releasing(1-29)-amide]
Dose 0.1 ug/100 g BW SC, 15 min, saline 383 ± 79
  Plasma GH: 767 ± 146 ng/mL
Dose 1.0 ug/100 g BW SC, 15 min, saline 383 ± 79
  Plasma GH: 2419 ± 252 ng/mL

## Ac-YADAIFTNSYRRVLGQLSARRLLQDIMSR-NH2 [[N-Ac-Tyr, Arg^12, 21]-hpGRF(1-29)-NH2, N-acetyl Arginine^12,21-human Pancreatic Growth Hormone-Releasing Factor (1-29)-amide]
Dose 1 μ/100 g BW SC, 15 min, saline 27% ± 54
  Plasma GH: 796 ± 88 ng/mL
Dose 2.5 μ/100 g BW SC, 15 min, saline 27% ± 54
  Plasma GH: 1649 ± 167 ng/mL

## CC[C@H](C)[C@H](NC(=O)[C@H](C)NC(=O)[C@H](CC(=O)O)NC(=O)[C@@H](C)NC(=O)[C@@H](Cc1ccc(O)cc1)NC(C)=O)C(=O)N[C@@H](Cc1ccccc1)C(=O)N[C@H](C(=O)N[C@@H](CC(N)=O)C(=O)N[C@@H](CO)C(=O)N[C@@H](Cc1ccc(O)cc1)C(=O)N[C@@H](CCCNC(=N)N)C(=O)N[C@@H](CCCCN)C(=O)N[C@H](C(=O)N[C@@H](CC(C)C)C(=O)NCC(=O)N[C@@H](CCC(N)=O)C(=O)N[C@@H](CC(C)C)C(=O)N[C@@H](CO)C(=O)N[C@@H](C)C(=O)N[C@@H](CCCNC(=N)N)C(=O)N[C@@H](CCCCN)C(=O)N[C@@H](CC(C)C)C(=O)N[C@@H](CC(C)C)C(=O)N[C@@H](CCC(N)=O)C(=O)N[C@@H](CC(=O)O)C(=O)N[C@H](C(=O)N[C@@H](CCSC)C(=O)N[C@@H](CO)C(=O)N[C@@H](CCCNC(=N)N)C(N)=O)[C@@H](C)CC)C(C)C)[C@@H](C)O [[N-Ac-D-Tyr^1, D-Ala^2]-hpGRF(1-29)-NH2, N-acetyl-D-tyrosine^1,D-alanine^2-human pancreatic growth hormone-releasing (1-29)-amine]
Dose 0.2 μ/100 g BW SC, 15 min, saline 333 ± 50
  Plasma GH: 680 ± 100 ng/mL
Dose 0.5 μ/100 g BW SC, blood 15 min after injection, saline 333 ± 50
  Plasma GH: 499 ± 50 ng/mL
Dose 0.8 μ/100 g BW SC, 15 min, saline 333 ± 50
  Plasma GH: 2063 ± 251 ng/mL
Dose 3.2 μ/100 g BW SC, 15 min, saline 333 ± 50
  Plasma GH: 3818 ± 412 ng/mL

## D-asparagine^8 -human Pancreatic Growth Hormone-Releasing(1-29)-amide [D-Asn^8]
Dose 4 ug/100 g BW SC, 15 min, saline 366 ± 81
  Plasma GH: 1296 ± 118 ng/mL
Dose 10 ug/100 g BW SC, 15 min, saline 366 ± 81
  Plasma GH: 2397 ± 246 ng/mL

## CC[C@H](C)[C@H](NC(=O)[C@H](C)NC(=O)[C@H](CC(=O)O)NC(=O)[C@@H](C)NC(=O)[C@@H](N)Cc1ccc(O)cc1)C(=O)N[C@@H](Cc1ccccc1)C(=O)N[C@H](C(=O)N[C@@H](CC(N)=O)C(=O)N[C@@H](CO)C(=O)N[C@@H](Cc1ccc(O)cc1)C(=O)N[C@@H](CCCNC(=N)N)C(=O)N[C@@H](CCCNC(=N)N)C(=O)N[C@H](C(=O)N[C@@H](CC(C)C)C(=O)NCC(=O)N[C@@H](CCC(N)=O)C(=O)N[C@@H](CC(C)C)C(=O)N[C@@H](CO)C(=O)N[C@@H](C)C(=O)N[C@@H](CCCNC(=N)N)C(=O)N[C@@H](CCCNC(=N)N)C(=O)N[C@@H](CC(C)C)C(=O)N[C@@H](CC(C)C)C(=O)N[C@@H](CCC(N)=O)C(=O)N[C@@H](CC(=O)O)C(=O)N[C@H](C(=O)N[C@@H](CCSC)C(=O)N[C@@H](CO)C(=O)N[C@@H](CCCNC(=N)N)C(N)=O)[C@@H](C)CC)C(C)C)[C@@H](C)O [[D-Ala^2, Arg^12, 21]-hpGRF(1-29)-NH2, D-alanine^2, Arginine^12,21-human Growth Hormone-Releasing (1-29)-amide] (H-Y[dA]DAIFTNSYRRVLGQLSARRLLQDIMSR-NH2)
Dose 0.4 μ/100 g BW SC, 15 min, saline 309 ± 20
  Plasma GH: 755 ± 131 ng/mL
Dose 1.0 μ/100 g BW SC, 15 min, saline 309 ± 20
  Plasma GH: 1752 ± 289 ng/mL

## CC[C@H](C)[C@H](NC(=O)[C@H](C)NC(=O)[C@@H](CC(=O)O)NC(=O)[C@@H](C)NC(=O)[C@@H](Cc1ccc(O)cc1)NC(C)=O)C(=O)N[C@@H](Cc1ccccc1)C(=O)N[C@H](C(=O)N[C@@H](CC(N)=O)C(=O)N[C@@H](CO)C(=O)N[C@@H](Cc1ccc(O)cc1)C(=O)N[C@@H](CCCNC(=N)N)C(=O)N[C@@H](CCCCN)C(=O)N[C@H](C(=O)N[C@@H](CC(C)C)C(=O)NCC(=O)N[C@@H](CCC(N)=O)C(=O)N[C@@H](CC(C)C)C(=O)N[C@@H](CO)C(=O)N[C@@H](C)C(=O)N[C@@H](CCCNC(=N)N)C(=O)N[C@@H](CCCCN)C(=O)N[C@@H](CC(C)C)C(=O)N[C@@H](CC(C)C)C(=O)N[C@@H](CCC(N)=O)C(=O)N[C@@H](CC(=O)O)C(=O)N[C@H](C(=O)N[C@@H](CCSC)C(=O)N[C@@H](CO)C(=O)N[C@@H](CCCNC(=N)N)C(N)=O)[C@@H](C)CC)C(C)C)[C@@H](C)O [N-acetyl-D-tyrosine^1,D-alanine^2,D-aspartic acid^3-human Pancreatic Growth Hormone-Releasing(1-29)-amine]
[1]
  Plasma GH: 1181 ± 164 ng/mL
[2]
  Plasma GH: 3594 ± 754 ng/mL
